Data published in PubChem BioAssay (NCI).
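Growth conditions: 96-well plates. Treatment: test compound, 48 hours, 5 concentrations. Analysis: linear interpolation between bracketing concentrations; unreached endpoints set to highest concentration. GI50 = concentration required for 50% inhibition of growth. TGI denotes the concentration required for complete inhibition of growth.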

Tests used:
Test in all cases: growth of human tumour cells (NCI), 48 h
OVCAR-3 ovarian = tested on: OVCAR-3 ovarian
SN12C renal = tested on: SN12C renal
MCF7 breast = tested on: MCF7 breast
NCI-H23 lung = tested on: NCI-H23 lung
MDA-MB-231 breast = tested on: MDA-MB-231 breast
SF-295 CNS = tested on: SF-295 CNS
U251 CNS = tested on: U251 CNS
UO-31 renal = tested on: UO-31 renal
HCC-2998 colon = tested on: HCC-2998 colon
HOP-62 NSCLC = tested on: HOP-62 NSCLC

| Compound | GI50 (OVCAR-3 ovarian) | TGI (OVCAR-3 ovarian) | GI50 (SN12C renal) | TGI (SN12C renal) | GI50 (MCF7 breast) | TGI (MCF7 breast) | GI50 (NCI-H23 lung) | TGI (NCI-H23 lung) | GI50 (MDA-MB-231 breast) | TGI (MDA-MB-231 breast) | GI50 (SF-295 CNS) | TGI (SF-295 CNS) | GI50 (U251 CNS) | TGI (U251 CNS) | GI50 (UO-31 renal) | TGI (UO-31 renal) | GI50 (HCC-2998 colon) | TGI (HCC-2998 colon) | GI50 (HOP-62 NSCLC) | TGI (HOP-62 NSCLC) |
| --- | --- | --- | --- | --- | --- | --- | --- | --- | --- | --- | --- | --- | --- | --- | --- | --- | --- | --- | --- | --- |
| COc1ccc(-c2oc(=O)ccc2-c2cc(OC)c(OC)c(OC)c2)cc1O | 0.463 µM | 3.55 µM | 6.4 µM | > 100 µM | 0.421 µM | > 53.6 µM | 3.91 µM | > 100 µM | 2.8 µM | > 100 µM | 1.26 µM | > 100 µM | 1.1 µM | > 100 µM | 3.72 µM | > 51.1 µM | 1.8 µM | 10.5 µM | 5.37 µM | > 100 µM |
| N#CC1=C(N)Oc2c(ccc3ccccc23)C1c1ccccc1 (configuration not stated) | 0.0357 µM | 2.2 µM | 0.0793 µM | 13.7 µM | 0.0393 µM | 15.6 µM | 0.0648 µM | 16.9 µM | 0.099 µM | 7.5 µM | 0.0299 µM | 11.6 µM | 0.0454 µM | 15.1 µM | 0.0622 µM | 15.2 µM | 0.141 µM | 6.67 µM | 0.0555 µM | 18.6 µM |
| COc1ccc(-c2cc(-c3cccn3C)c(C#N)c(=O)[nH]2)cc1OC | > 100 µM | > 100 µM | > 100 µM | > 100 µM | > 100 µM | > 100 µM | > 100 µM | > 100 µM | > 100 µM | > 100 µM | > 100 µM | > 100 µM | > 100 µM | > 100 µM | 85.1 µM | > 100 µM | 88.7 µM | > 100 µM | > 100 µM | > 100 µM |
| C=C1C(=O)O[C@H]2[C@H]1CC/C(COC(=O)C(=O)c1cn(C)c3ccc(Cl)cc13)=C\CC[C@@]1(C)O[C@@H]21 | 0.315 µM | 1.03 µM | 1.39 µM | 4.71 µM | 0.391 µM | 3.19 µM | 1.39 µM | 3.05 µM | 1.03 µM | 4.3 µM | 2.88 µM | 10.3 µM | 1.79 µM | 3.38 µM | 0.817 µM | 2.17 µM | 1.86 µM | 3.52 µM | 1.33 µM | 3.02 µM |
| O=c1ccs[nH]1 |  | 21.7 µM |  | 28.3 µM |  | 38.7 µM |  | 43.7 µM |  | 28.6 µM |  | 54.2 µM |  | 21.4 µM |  | 23 µM |  | 8.02 µM |  | 38.6 µM |
| CCOC(=O)NC1C2CC(=O)OC(O2)C1OC(C)=O (configuration not stated) |  | > 100 µM |  | > 100 µM | > 100 µM | > 100 µM |  | > 100 µM | > 100 µM | > 100 µM |  | > 100 µM |  | > 100 µM |  | > 100 µM |  | > 100 µM |  | > 100 µM |
| c1ccc2c(NCCCCCCNc3c4ccccc4nc4ccccc34)c3ccccc3nc2c1 |  | 2.21 µM |  | 4.25 µM |  | 2.07 µM |  | 2.33 µM |  | 2.05 µM |  | 2.18 µM |  | 2.59 µM |  | 23.5 µM |  | 1.76 µM |  | 2.21 µM |
| CNC(=O)c1ccc(N2C(=S)N(c3ccc(C#N)c(C(F)(F)F)c3)C(=O)C2(C)C)cc1F | 36.5 µM | > 84.5 µM | 38.6 µM | > 100 µM | 33.9 µM | > 82.3 µM | 30.2 µM | > 89.6 µM | > 38.6 µM | > 60.6 µM | 28.9 µM | > 75.9 µM | 43 µM | > 79.7 µM | 8.83 µM | 34.9 µM | > 40.7 µM | > 65.8 µM | 25.1 µM | > 67.2 µM |
| Cc1occc1C(=S)Nc1ccc(Cl)c(C(=O)OC(C(C)C)C(C)C)c1 |  | 28.3 µM |  | 30.9 µM |  | 34 µM |  | 23 µM |  | 27.2 µM |  | 18.5 µM |  | 34.1 µM |  | 17.5 µM |  | 21.9 µM |  | 42.3 µM |
| CCCN(CCC)c1ccc(/C=C/c2ccc3cc(OCC)ccc3n2)cc1 | > 100 µM | > 100 µM | > 100 µM | > 100 µM | > 100 µM | > 100 µM | 36.7 µM | > 100 µM | > 100 µM | > 100 µM | 22.7 µM | > 100 µM | 48.5 µM | > 100 µM | > 100 µM | > 100 µM | > 100 µM | > 100 µM | > 100 µM | > 100 µM |
| CNC(=S)NC(=O)c1c(Cl)n(C(=O)OC(C)(C)C)c2ccccc12 | 38.1 µM | > 100 µM | 72.8 µM | > 100 µM | 28.3 µM | > 100 µM | 53.1 µM | > 100 µM | 33.7 µM | > 100 µM | 56.4 µM | > 100 µM | 53.6 µM | > 100 µM | 73.8 µM | > 100 µM | 27.6 µM | > 100 µM | > 100 µM | > 100 µM |
| CC(=O)N1C/C(=C/c2ccc(Cl)cc2)C(=O)/C(=C/c2ccc(Cl)cc2)C1 | 0.583 µM | 1.79 µM | 0.72 µM | 2.24 µM | 0.292 µM | 1.13 µM | 1.5 µM | 3.67 µM | 1.15 µM | 3.23 µM | 1.08 µM | 3.02 µM | 0.337 µM | 1.18 µM | 0.887 µM | 2.35 µM | 0.632 µM | 1.45 µM | 0.516 µM | 1.25 µM |
| C=C(NC(=O)C(=C)NC(=O)c1csc(C2=NC3c4csc(n4)C4NC(=O)c5csc(n5)C(C(C)(O)C(C)O)NC(=O)C5CSC(=N5)C(=CC)NC(=O)C(C(C)O)NC(=O)c5csc(n5)C3(CC2)NC(=O)C(C)NC(=O)C(=C)NC(=O)C(C)NC(=O)C(C(C)CC)NC2C=Cc3c(C(C)O)cc(nc3C2O)C(=O)OC4C)n1)C(N)=O (configuration not stated) | 6.59 µM | > 100 µM | 19.6 µM | > 100 µM | 5.7 µM | > 100 µM | 13.7 µM | > 100 µM | 6.46 µM | > 100 µM | 21.2 µM | 66.9 µM | 9.37 µM | 31.8 µM | 11.4 µM | > 100 µM | 28.8 µM | > 100 µM | 22.9 µM | > 100 µM |
